Positions count from the first letter of the chain named. Where “and” joins values, the source holds several entries; their conditions need not be identical. Equal entries are not always repeated.
Key:
Y2R mutant L224^5.43A = target: T1, Y2R mutant L224^5.43A (Homo sapiens, UniProt P49146, L224A); experiment: NPY-induced IP accumulation (IP-One), mutant; format: cell-based; conditions: 1 μM antagonist, source data Fig. 3
T1 construct: expressed in transfected cells; host or cells: HEK293

Y2R mutant L284^6.51A = target: T2, Y2R mutant L284^6.51A (Homo sapiens, UniProt P49146, L284A); experiment: NPY-induced IP accumulation (IP-One), mutant; format: cell-based
T2 construct: expressed in transfected cells; host or cells: HEK293
T2 sequence (P49146 1-381 L284A): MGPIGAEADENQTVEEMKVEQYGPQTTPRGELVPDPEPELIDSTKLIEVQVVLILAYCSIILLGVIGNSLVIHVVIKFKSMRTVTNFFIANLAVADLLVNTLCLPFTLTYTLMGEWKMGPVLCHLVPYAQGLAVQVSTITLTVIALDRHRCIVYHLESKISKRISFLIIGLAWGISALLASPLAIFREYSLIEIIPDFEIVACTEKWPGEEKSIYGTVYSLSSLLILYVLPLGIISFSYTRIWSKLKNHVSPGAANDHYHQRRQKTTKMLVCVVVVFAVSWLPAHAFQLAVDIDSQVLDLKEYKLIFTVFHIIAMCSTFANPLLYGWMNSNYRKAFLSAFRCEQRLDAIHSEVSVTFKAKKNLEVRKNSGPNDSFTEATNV

Y2R mutant Y219^5.38A = target: T3, Y2R mutant Y219^5.38A (Homo sapiens, UniProt P49146, Y219A); experiment: NPY-induced IP accumulation (IP-One), mutant; format: cell-based; conditions: 1 μM antagonist, source data Fig. 3
T3 construct: expressed in transfected cells; host or cells: HEK293
T3 sequence (P49146 whole entry Y219A): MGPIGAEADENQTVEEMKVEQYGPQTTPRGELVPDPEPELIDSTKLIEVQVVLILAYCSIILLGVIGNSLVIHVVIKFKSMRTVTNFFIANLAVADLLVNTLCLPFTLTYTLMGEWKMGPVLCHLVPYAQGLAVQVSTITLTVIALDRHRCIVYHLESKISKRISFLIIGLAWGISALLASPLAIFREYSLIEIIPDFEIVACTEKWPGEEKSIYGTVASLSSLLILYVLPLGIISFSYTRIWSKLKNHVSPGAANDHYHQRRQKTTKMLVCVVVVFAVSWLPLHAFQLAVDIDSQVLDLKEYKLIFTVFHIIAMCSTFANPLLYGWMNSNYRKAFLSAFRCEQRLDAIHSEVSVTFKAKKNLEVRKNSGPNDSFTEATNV

Y2R mutant L183^4.60A = target: T4, Y2R mutant L183^4.60A (Homo sapiens, UniProt P49146, L183A); experiment: NPY-induced IP accumulation (IP-One), mutant; format: cell-based; conditions: 1 μM antagonist, source data Fig. 3
T4 construct: expressed in transfected cells; host or cells: HEK293
T4 sequence (P49146 whole entry L183A): as the sequence (P49146 whole entry Y219A) above, with L183A, A219Y counted along it

Y2R mutant W281^6.48T = target: T5, Y2R mutant W281^6.48T (Homo sapiens, UniProt P49146, W281T); experiment: NPY-induced IP accumulation (IP-One), mutant; format: cell-based
T5 construct: expressed in transfected cells; host or cells: HEK293
T5 sequence (P49146 1-381 W281T): T2 sequence (P49146 1-381 L284A) with W281T, A284L

Y2R mutant D292^6.59N = target: T6, Y2R mutant D292^6.59N (Homo sapiens, UniProt P49146, D292N); experiment: NPY-induced IP accumulation (IP-One), mutant; format: cell-based
T6 construct: expressed in transfected cells; host or cells: HEK293
T6 sequence (P49146 1-381 D292N): T2 sequence (P49146 1-381 L284A) with A284L, D292N

Y2R mutant Y228^5.47A = target: T7, Y2R mutant Y228^5.47A (Homo sapiens, UniProt P49146, Y228A); experiment: NPY-induced IP accumulation (IP-One), mutant; format: cell-based; conditions: 1 μM antagonist, source data Fig. 3
T7 construct: expressed in transfected cells; host or cells: HEK293
T7 sequence (P49146 whole entry Y228A): as the sequence (P49146 whole entry Y219A) above, with A219Y, Y228A counted along it

[1] = design: method as in Brothers, S. P. et al., Mol. Pharmacol. 77:46–57, 2010; conditions: ref Brothers, S. P. et al., Mol. Pharmacol. 77:46–57, 2010; cited from earlier work
[2] = system: opioid and adrenergic receptors; design: method as in Brothers, S. P. et al., Mol. Pharmacol. 77:46–57, 2010; conditions: ref Brothers, S. P. et al., Mol. Pharmacol. 77:46–57, 2010; cited from earlier work
[3] = 1 μM antagonist, source data Fig. 3
[4] = EC50(NPY + 1 μM antagonist)/EC50(NPY)
[5] = EC50 ratio (WT)/EC50 ratio (mutant)

T1 sequence (P49146 whole entry L224A): as the sequence (P49146 whole entry Y219A) above, with A219Y, L224A counted along it

With `N=C(N)NCCC[C@H](NC(=O)CC1(CC(=O)N2CCN(C3c4ccccc4NC(=O)c4ccccc43)CC2)CCCC1)C(=O)NCCn1c(=O)n(-c2ccccc2)n(-c2ccccc2)c1=O` (stereo partly drawn) [BIIE0246] the “Average EC50 ratio” value (Y2R mutant L224^5.43A) was 738.6, the “EC50 ratio (individual experiments)” value (Y2R mutant L224^5.43A) was 1348.6 and 128.7 and the “Average EC50 ratio” value (Y2R mutant L284^6.51A; [3]) was 108.6. The “EC50 ratio (individual experiments)” value (Y2R mutant L284^6.51A; [3]) was 88.8 and 128.4, the EC50 ratio (Y2R mutant L284^6.51A; [4]) was 89 and 128 and the “Ratio change (fold)” value (Y2R mutant L284^6.51A; [5]) was 1.8 fold and 1.2 fold. The “Average EC50 ratio” value (Y2R mutant Y219^5.38A) was 97.9, the “EC50 ratio (individual experiments)” value (Y2R mutant Y219^5.38A) was 48.6 and 147.2 and the “Average EC50 ratio” value (Y2R mutant L183^4.60A) was 10.3. For the same molecule, the “EC50 ratio (individual experiments)” value (Y2R mutant L183^4.60A) was 6.3 and 14.3, the “Average EC50 ratio” value (Y2R mutant W281^6.48T; [3]) was 2.6 and the “EC50 ratio (individual experiments)” value (Y2R mutant W281^6.48T; [3]) was 3.3 and 2.0. For the same molecule, the EC50 ratio (Y2R mutant W281^6.48T; [4]) was 3 and 2, the “Ratio change (fold)” value (Y2R mutant W281^6.48T; [5]) was 48 fold and 80 fold and the “Average EC50 ratio” value (Y2R mutant D292^6.59N; [3]) was 66.7. The “EC50 ratio (individual experiments)” value (Y2R mutant D292^6.59N; [3]) was 70.5 and 62.9, the EC50 ratio (Y2R mutant D292^6.59N; [4]) was 71 and 63 and the “Average EC50 ratio” value (Y2R mutant Y228^5.47A) was 18.8. The “EC50 ratio (individual experiments)” value (Y2R mutant Y228^5.47A) was 10.5 and 27.0, the Blood-brain-barrier permeability [1] was “poor” and the “Affinities at opioid and adrenergic receptors” value [2] was “submicromolar”.

Reference: PMC7854658, “Structural basis for ligand recognition of the neuropeptide Y Y2 receptor” (Nature Communications, 2021)
